Assay results reported in patent publication US20140288061A1, “INSECTICIDE COMPOSITIONS AND PROCESS” (priority 2004, published 2014).

Tested on: German cockroaches
Settings: for LC50 (%) [95% CI]: 2 μl per insect, evaluated after 24 hours, alone or with 10% solution (ETCH) of Tomadol 23-1
Procedure: Dose-response evaluations were performed on 1-4 week old adults SJC Strain (S.C. Johnson & Son, Racine, Wis.) German cockroaches, Blattella germanica, L. Insects were individually transferred using a 7″ (18 cm) […] forceps to 100×20 mm polystyrene Petri dishes. The inside edge of the dishes was lightly coated with a layer of (1:3) mineral oil+petroleum jelly to minimize insect escape. Approximately 10 cockroaches were transferred to each dish and then anesthetized with a 15-25 second exposure to CO2. Anesthetized cockroaches were positioned with their ventral side up in the bottom of the Petri dish. A 2 μl drop of test solution was applied to the area between the meso- and methathoracic legs using a Rainen L-10 10 μl pipette. Control cockroaches were treated with a 2 μl drop of the solvent, 100% ethyl alcohol.
Structure—activity tests used to calculate LT50 values were scored approximately every 30 minutes for the first two hours following treatment followed by approximate hourly readings to hour 8 with a final reading at 24 hours. Cockroaches were scored as either alive (dorsal side up, active movement when abdomen prodded) or moribund/dead (dorsal side up and no movement when abdomen prodded or ventral side up and insect unable to right itself).

COP(=O)(NC(C)=O)SC (centres unmarked) [acephate]
LC50 (%) [95% CI]: 0.0051% | synergy of insecticidal activity by Tomadol 23-1 (reduced the LC50) (in words): did not synergize

CC1(C)C(C=C(Cl)Cl)C1C(=O)OC(C#N)c1ccc(F)c(Oc2ccccc2)c1 (centres unmarked) [cyfluthrin]
LC50 (%) [95% CI]: 0.0050%

CN1COCN(Cc2cnc(Cl)s2)/C1=N\[N+](=O)[O-] [thiamethoxam]
LC50 (%) [95% CI]: 0.0038%

O=[N+]([O-])NC1=NCCN1Cc1ccc(Cl)nc1 [imidacloprid]
LC50 (%) [95% CI]: 0.0219%

CCOCn1c(-c2ccc(Cl)cc2)c(C#N)c(Br)c1C(F)(F)F [chlorfenapyr]
LC50 (%) [95% CI]: 0.4062%

CNC(=O)Oc1ccccc1OC(C)C [propoxur]
LC50 (%) [95% CI]: 0.0101%

CN/C(=N\[N+](=O)[O-])NCc1cnc(Cl)s1 [clothianidin]
LC50 (%) [95% CI]: 0.0020%
